Data as given in patent publication US7759399B2, “Pharmaceutical compositions” (priority 2002, dated 2010).
Read-outs that look alike come from different tables or passages of the source.

Tests used:
[1] = test system: Sendai virus; assay: Sendai virus replication in 37RC cells (virus yield by HAU titration); assay type: cell-based; conditions: Respirovirus muris, 5 HAU/10^5 cells, virus yield at 24 hours after infection, read-out: ID50 (50% inhibitory dose/concentration), Sendai virus yield
[2] = test system: HSF; assay: HSF luciferase reporter assay, HeLa cell clone 13B (human hsp70 promoter); assay type: cell-based; conditions: 8 h, HeLa clone 13B, 8 h treatment, serum-free medium, read-out: HSF, AC200 (concentration at which the compound doubled the HSF activity)
Experimental: (§1) Method: HeLa cell clone 13B, stably transfected with a luciferase reporter plasmid controlled by the human hsp70 promoter, and HeLa κB-transformed cells, stably transfected with a luciferase reporter plasmid controlled by a synthetic NF-κB-STM construct, were maintained in DMEM medium supplemented with 10% FBS, L-glutamine (2 mM) and G418 (250 μg/ml) at 37° C. in a 5% CO2 humidified atmosphere.
(§2) Cells were seeded at a density of 4×10^4 cells/well in 96-well plates. After 18-20 h, the medium was removed and cells were treated for 8 h with the test compounds (100 μl) at the appropriate dilutions in serum-free medium. For the NF-κB-dependent reporter gene assay, cells were stimulated with TPA (25 ng/ml) 2 h after exposure to the compounds.
(§3) After incubation, the medium was removed and cells were lysed in 10 μl of lysis buffer. The luciferase activity was determined by adding 100 μl of substrate and measuring the release of light using a Victor 1420 microplate reader (Wallac, Finland).
(§4) The AC200/μM for HSF is the concentration at which the tested compound doubled the HSF activity in this assay. The IC50/μM for NF-κB is the concentration at which the tested compound halved the NF-κB activity in this assay.

[3] = test system: NF-κB; assay: NF-κB-dependent luciferase reporter gene assay, HeLa κB-transformed cells, TPA stimulated; assay type: cell-based; conditions: Homo sapiens, HeLa, 8 h treatment, TPA 25 ng/ml 2 h after exposure, read-out: NF-κB, IC50 (concentration at which the compound halved the NF-κB activity)
Experimental: as §1, §2, §3
The fragment Kpn I-BamH I from the pGL3 basic vector containing the luciferase gene (PROMEGA) was inserted in the pcDNA3 vector (INVITROGEN) digested with Bgl II-KpnI. (This digestion removes the CMV-promoter from pcDNA3.) The resulting new vector was digested with Kpn I-Hind III and a promoter containing a ‘5xNF-κB binding sites—TATA box’ sequence was inserted upstream of the luciferase gene. This vector has been named STM.
To obtain stable HeLa cell lines expressing the luciferase gene under the control of NF-κB, HeLa cells were transfected (using lipofectamine plus GIBCO) with the STM-Pvu I linearized vector, and selected for 20 days with G418 (800 μg/ml). After selection, the resistant HeLa cell pool was controlled (in quadruplicate samples) for luciferase activity after stimulation with TNFα, IL-1 and TPA.
as §4

[4] = in vitro; assay type: cell-based; conditions: 37RC cells, 24 h treatment; read-out: LC50 (50% lethal dose/concentration), Neutral Red
Experimental: Cell viability was determined using the Neutral Red assay. 37RC cells were seeded at density of 6×10^4 cells/well in 24-well plates and incubated for 24 h. Confluent 37RC monolayers were treated with the test compounds at different dilutions for 24 h at 37° C. After incubation, the medium was removed and the cells were incubated with RPMI medium containing 40 μg/ml Neutral Red dye (500 μl/well). After 2 h at 37° C., the monolayers were washed with phosphate-buffered saline (PBS) and then with a solution containing 1% CaCl2 and 0.5% formaldehyde. After washing, a solution containing 1% acetic acid/50% ethanol was added to the monolayers (250 μl/well). After 10 min at room temperature, the absorbance was determined with a microplate reader (Victor 1420, Wallac) at 540 nm.

[5] = test system: uninfected 37RC cells; conditions: monkey
[6] = Alamar Blue cytotoxicity assay; assay type: cell-based; conditions: human
Experimental: HeLa cells were plated in 96-well microtiter plates in 100 μl culture medium (4×10^4/well). After 20 hours, the cells were exposed to the test compounds at different dilutions and incubated for the next 8 h at 37° C. in a 5% CO2 humidified atmosphere. After 6 h incubation, the Alamar Blue was added in an amount equal to 10% of the culture volume (10 μl). Two hours after the addition of the Alamar Blue, the fluorescence was measured using a Victor 1420 microplate reader.
The LC50/μM is the concentration at which the tested compound killed half the cells in this assay.

[7] = test system: uninfected 37RC cells; assay: Toxicity to uninfected cells, determined visually by microscopy (TD100)

| Structure (SMILES) | IC50 ([1]; 24 h) | EC (2-fold) [2] | IC50 [3] | CC50 at 24 h [4] | TD100 (dose or concentration at which the compound was 100% toxic to uninfected cells) [5] | IC50 [1] | CC50 at 8 h [6] | TD100 (dose or concentration at which the compound was 100% toxic to uninfected cells) [7] |
| --- | --- | --- | --- | --- | --- | --- | --- | --- |
| CC(C)(C)C(=O)OC1[C@@H](Sc2ccc3ccccc3c2)CC(=O)C1(C)C (stereo in doubt) [CTM-191, 2,2-dimethylpropionic acid (1R,5S)-2,2-dimethyl-5-(naphthalen-2-ylsulfanyl)-3-oxocyclopentyl ester] | 4 µM | 18 µM | 25 µM | 24 µM | 50 µM | – | – | – |
| CC(C)(C)C(=O)OC1[C@H](Sc2ccc3ccccc3c2)CC(=O)C1(C)C (stereo in doubt) [CTM-193, 2,2-dimethylpropionic acid (1S,5R)-2,2-dimethyl-5-(naphthalen-2-ylsulfanyl)-3-oxocyclopentyl ester] | 3 µM | 26 µM | 32 µM | 23 µM | 50 µM | – | – | – |
| Cc1ccc(S[C@H]2CC(=O)C[C@@H]2O[Si](C)(C)C(C)(C)C)cc1 [CTM-80] | – | 60 µM | > 100 µM | 16 µM | – | 1 µM | > 800 µM | 50 µM |
| CC(=O)Nc1ccc(S[C@H]2CC(=O)C[C@@H]2O[Si](C)(C)C(C)(C)C)cc1 [CTM-81] | – | 28 µM | 31 µM | 17 µM | – | 1 µM | 181 µM | 50 µM |
| COC(=O)c1ccccc1S[C@H]1CC(=O)C[C@@H]1O[Si](C)(C)C(C)(C)C [CTM-82] | – | 35 µM | 54 µM | 16 µM | – | 1 µM | > 800 µM | 50 µM |
| CC(=O)NCCS[C@H]1CC(=O)C[C@@H]1O[Si](C)(C)C(C)(C)C [CTM-83] | – | 27 µM | 47 µM | 27 µM | – | 3 µM | > 800 µM | 50 µM |
| CC(C)(C)[Si](C)(C)O[C@H]1CC(=O)C[C@@H]1Sc1ncccn1 [CTM-84] | – | 28 µM | 28 µM | 6.3 µM | – | 1 µM | 556 µM | 10 µM |
| CC(C)(C)[Si](C)(C)O[C@H]1CC(=O)C[C@@H]1Sc1ccccn1 [CTM-86] | – | 20 µM | 36 µM | 7 µM | – | 2 µM | 96 µM | 10 µM |
| COC(=O)CS[C@H]1CC(=O)C[C@@H]1O[Si](C)(C)C(C)(C)C [CTM-87] | – | 48 µM | 52 µM | 38 µM | – | 4 µM | 260 µM | 50 µM |
| COC(=O)CCS[C@H]1CC(=O)C[C@@H]1O[Si](C)(C)C(C)(C)C [CTM-88] | – | 60 µM | 65 µM | 45 µM | – | 10 µM | 477 µM | 50 µM |
| CC(=O)N[C@@H](CS[C@H]1CC(=O)C[C@@H]1O[Si](C)(C)C(C)(C)C)C(=O)OC(C)(C)C [CTM-106] | – | 26 µM | > 100 µM | 28 µM | – | 4 µM | 536 µM | 50 µM |
| CC(C)(C)[Si](C)(C)O[C@H]1CC(=O)C[C@@H]1Sc1ccc(F)cc1 [CTM-108] | – | 13 µM | > 100 µM | 29 µM | – | 4 µM | > 800 µM | 50 µM |
| Cc1cc(C)n(CCS[C@H]2CC(=O)C[C@@H]2O[Si](C)(C)C(C)(C)C)n1 [CTM-109] | – | 29 µM | > 100 µM | 33 µM | – | 4 µM | 267 µM | 50 µM |
| CC(S[C@H]1CC(=O)C[C@@H]1O[Si](C)(C)C(C)(C)C)C(=O)NCC(=O)O (stereo partly shown) [CTM-110] | – | 27 µM | > 100 µM | 18 µM | – | 1 µM | > 800 µM | 50 µM |
| CCOC(=O)[C@H](CS[C@H]1CC(=O)C[C@@H]1O[Si](C)(C)C(C)(C)C)NC(C)=O [CTM-131] | – | 70 µM | > 100 µM | 125 µM | – | 10 µM | > 800 µM | 50 µM |
| CC(C)(C)[Si](C)(C)O[C@H]1CC(=O)C[C@@H]1Sc1ccncc1 [CTM-132] | – | 13 µM | 33 µM | 2.6 µM | – | 0.2 µM | 220 µM | 10 µM |
| CC(C)(C)[Si](C)(C)O[C@H]1CC(=O)C[C@@H]1SCCS(=O)(=O)O [CTM-165] | – | 26 µM | 50 µM | 21 µM | – | 1 µM | > 800 µM | 50 µM |
| COc1ccc(S[C@H]2CC(=O)C[C@@H]2O[Si](C)(C)C(C)(C)C)cc1 [CTM-169] | – | 26 µM | 38 µM | 22 µM | – | 1.5 µM | > 800 µM | 50 µM |
